Laboratory results from patent US10966994B2, “Thromboxane receptor antagonists” (ATXA THERAPEUTICS LIMITED, priority 2015, dated 2021).

Tests used:
[1] = biological target: T1, EP1 receptor (Homo sapiens, UniProt P34995); test: Specificity testing, EP1 receptor signaling; format: cell-based
T1 sequence (P34995 1-402): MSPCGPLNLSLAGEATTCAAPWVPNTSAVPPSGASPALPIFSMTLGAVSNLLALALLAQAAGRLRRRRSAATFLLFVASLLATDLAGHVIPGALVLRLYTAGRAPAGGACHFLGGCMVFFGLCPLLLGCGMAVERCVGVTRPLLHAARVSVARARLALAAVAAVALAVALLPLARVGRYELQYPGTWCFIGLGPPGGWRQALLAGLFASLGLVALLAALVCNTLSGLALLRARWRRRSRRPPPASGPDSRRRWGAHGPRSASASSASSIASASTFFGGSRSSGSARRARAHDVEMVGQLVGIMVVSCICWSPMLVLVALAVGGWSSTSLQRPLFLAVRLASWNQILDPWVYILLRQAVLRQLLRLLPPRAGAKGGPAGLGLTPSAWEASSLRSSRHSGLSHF
Procedure: (§1) There is no or minimal inhibition of the majority of the non-TP-mediated signaling observed in the presence of either NTP42 & NTP48. Where there is inhibition of signaling, it is observed at the 10 μM concentration only. […] Compared to NTP42, NTP48 has less of an effect on the signaling of the non-TP prostanoid receptors and therefore, may be considered more favorable in this context.

[2] = biological target: T2, EP3 receptor (Homo sapiens, UniProt P43115); test: Specificity testing, EP3 receptor signaling; format: cell-based
T2 sequence (P43115 1-390): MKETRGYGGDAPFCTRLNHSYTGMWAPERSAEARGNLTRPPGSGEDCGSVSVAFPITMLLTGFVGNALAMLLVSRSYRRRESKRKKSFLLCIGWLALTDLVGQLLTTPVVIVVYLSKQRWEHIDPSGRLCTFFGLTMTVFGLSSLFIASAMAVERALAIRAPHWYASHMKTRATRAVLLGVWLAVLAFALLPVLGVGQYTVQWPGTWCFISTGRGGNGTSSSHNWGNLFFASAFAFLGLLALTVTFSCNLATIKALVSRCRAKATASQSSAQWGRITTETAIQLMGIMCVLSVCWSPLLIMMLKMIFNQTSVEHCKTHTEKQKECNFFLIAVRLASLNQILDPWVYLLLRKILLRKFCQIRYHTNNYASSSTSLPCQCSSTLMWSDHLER

[3] = biological target: T3, DP1 receptor (Homo sapiens, UniProt Q13258); test: Specificity testing, DP1 receptor signaling; format: cell-based
T3 sequence (Q13258 1-359): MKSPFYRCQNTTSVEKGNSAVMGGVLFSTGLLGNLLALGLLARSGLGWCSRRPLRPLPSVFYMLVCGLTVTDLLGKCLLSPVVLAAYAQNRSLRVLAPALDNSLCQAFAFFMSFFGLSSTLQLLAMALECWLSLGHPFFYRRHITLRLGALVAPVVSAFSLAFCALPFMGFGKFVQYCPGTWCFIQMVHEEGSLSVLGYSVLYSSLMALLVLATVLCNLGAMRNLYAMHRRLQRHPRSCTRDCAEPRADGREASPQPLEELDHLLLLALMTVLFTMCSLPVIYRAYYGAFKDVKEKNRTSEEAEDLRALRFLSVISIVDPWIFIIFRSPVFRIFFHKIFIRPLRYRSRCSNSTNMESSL
Procedure: as §1

[4] = tested on: human platelets; test: U46619-mediated platelet aggregation ex vivo (PAP-8E aggregometer); format: cell-based; settings: for IC50: Platelet, human PRP, 10 min pre-incubation, 1 μM U46619, estimated IC50, read-out: IC50 values for Inhibition of U46619-Mediated Platelet Aggregation
Procedure: In order to evaluate NTP42-NTP49 in a second independent assay, the effect of the compounds on U46619-mediated platelet aggregation assays was examined. Clearly, from an efficacy point of view, this is an important assay and, physiologically, the more relevant with respect to the therapeutic target.
The compounds were tested in side-by-side assays with the previously identified key lead compound TP20 using the PAP-8E platelet aggregometer.
(§2) PRP was prepared from blood taken from healthy volunteers into syringes containing 3.8% sodium citrate and 10 μM indomethacin such that the final ratio of anticoagulant to blood was 1:9. Aliquots of PRP (300 μl) were pre-incubated for 10 min with the TP antagonists, TP20, NTP42, NTP43, NTP44, NTP45, NTP47, NTP48 and NTP49, where 2-fold serial dilutions from 0.25 μM was prepared for each, prior to stimulating platelets with 1 μM U46619, incubated at 37° C., with stirring. The results are presented as Percentage Aggregation (mean±S.E.M.), as determined by changes in light transmission over time using the PAP-8E Platelet Aggregation Profiler and represents data from 4 independent experiments (n=4).
as §2, with “TP20, NTP4,” for “TP20,”, “NTP42, NTP43” for “NTP42, NTP43, NTP44, NTP45, NTP47, NTP48”, “and NTP48,” for “and NTP49,”, “from 1” for “from 0.25”, “from at least 3” for “from 4”, “experiments (n≥3).” for “experiments (n=4).”

[5] = biological target: FP1 receptor (Homo sapiens, UniProt P43088); test: Specificity testing, FP1 receptor signaling; format: cell-based
[6] = Toxicity
[7] = maximal inhibition, at 10 μM only

Sequence of FP1 receptor (P43088 whole entry): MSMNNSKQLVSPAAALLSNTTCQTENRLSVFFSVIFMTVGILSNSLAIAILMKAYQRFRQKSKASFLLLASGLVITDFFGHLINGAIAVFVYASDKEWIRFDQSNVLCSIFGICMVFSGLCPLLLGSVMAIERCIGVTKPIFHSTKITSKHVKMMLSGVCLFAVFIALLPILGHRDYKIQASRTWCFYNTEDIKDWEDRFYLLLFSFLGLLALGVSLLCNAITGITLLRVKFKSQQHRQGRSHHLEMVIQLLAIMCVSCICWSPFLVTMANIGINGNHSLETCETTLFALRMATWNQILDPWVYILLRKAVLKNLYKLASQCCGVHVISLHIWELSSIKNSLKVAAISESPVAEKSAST

IC50 [4] [nM]	SMILES	effect on the EP1 receptor [1]	percentage reduction in responses, EP1 [1, 7] [%]	effect on the EP3 receptor [2]	effect on the DP1 receptor (DP-mediated signaling) [3]	percentage reduction in responses, DP1 [3, 7] [%]	effect on the FP1 receptor (FP-mediated signaling) [5]	toxicity [6]	inhibition of U46619-mediated aggregation of human platelet ex vivo (in words) ([4]; 1 μM U46619)
22 ± 2.03	CC(C)(C)NC(=O)NS(=O)(=O)c1cc(C#N)ccc1Oc1cccc(-c2ccc(OC(F)(F)F)cc2)c1 [NTP43]	not to exhibit any effect		not to exhibit any effect	not to exhibit any effect		not to exhibit any effect	minimal toxicity	
21.3 ± 1.01	COc1ccc(-c2cccc(Oc3ccc(C#N)cc3S(=O)(=O)NC(=O)NC(C)(C)C)c2)cc1 [NTP4, reference compound]	like TP20 and NTP4, neither NTP42, NTP43 nor NTP48 exhibited any effect		like TP20 and NTP4, neither NTP42, NTP43 nor NTP48 exhibited any effect	like TP20 and NTP4, neither NTP42, NTP43 nor NTP48 exhibited any effect		like TP20 and NTP4, neither NTP42, NTP43 nor NTP48 exhibited any effect		
9.45 ± 1.38	CN(C)C(=O)c1ccc(-c2cccc(Oc3ccc(C#N)cc3S(=O)(=O)NC(=O)NC(C)(C)C)c2)cc1 [NTP48, 4-[3-[2-(tert-Butylcarbamoylsulfamoyl)-4-cyano-phenoxy]phenyl]-N,N-dimethyl-benzamide]	no effect		no effect	no effect		no effect	minimal toxicity	

SMILES	IC50 [4] [nM]	effect on the EP1 receptor [1]	percentage reduction in responses, EP1 [1, 7] [%]	effect on the EP3 receptor [2]	effect on the DP1 receptor (DP-mediated signaling) [3]	percentage reduction in responses, DP1 [3, 7] [%]	effect on the FP1 receptor (FP-mediated signaling) [5]	toxicity [6]	inhibition of U46619-mediated aggregation of human platelet ex vivo (in words) ([4]; 1 μM U46619)
CC(C)(C)NC(=O)NS(=O)(=O)c1cc(C#N)ccc1Oc1cccc(-c2ccc(OC(F)F)cc2)c1 [NTP42]	10.1 ± 1.07	no effect	~55	no effect	no effect	< 30	no effect	minimal toxicity	
COc1ccc(-c2cccc(Oc3ccc([N+](=O)[O-])cc3S(=O)(=O)NC(=O)NC(C)(C)C)c2)cc1 [TP20, reference compound]	4.62 ± 0.72	like TP20 and NTP4, neither NTP42, NTP43 nor NTP48 exhibited any effect		like TP20 and NTP4, neither NTP42, NTP43 nor NTP48 exhibited any effect	like TP20 and NTP4, neither NTP42, NTP43 nor NTP48 exhibited any effect		like TP20 and NTP4, neither NTP42, NTP43 nor NTP48 exhibited any effect		potently inhibit
